From patent US20120083522A1, “MODULATION OF INFLAMMATORY RESPONSES BY FACTOR XI” (Isis Pharmaceuitcals, inc., priority 2009, published 2012) come the findings set out here.

In the oligonucleotide strings, read from the 5' end, every base follows the letter of its sugar. An asterisk marks phosphorothioate; unmarked linkages are phosphodiester. Other units and linkages are bracketed, terminal groups are in braces. A string of capitals states the bases alone. e = 2'-O-(2-methoxyethyl) (MOE); [5mC] = 5-methylcytosine; d = 2'-deoxy (DNA)

One data set has as its system human Factor XI mRNA. Briefly: Dose-dependent inhibition in HepG2 cells, lipofectin (Example 4). The class given is cell-based. The settings on record: 9.375 nM, 16 hours. As to the method: (§1) Cells were plated at a density of 10,000 cells per well and transfected using lipofectin reagent with 9.375 nM, 18.75 nM, 37.5 nM and 75 nM concentrations of antisense oligonucleotide, as specified in Table 9. After a treatment period of approximately 16 hours, RNA was isolated from the cells and Factor XI mRNA levels were measured by quantitative real-time PCR. Human Factor XI primer probe set RTS 2966 was used to measure mRNA levels. Factor XI mRNA levels were adjusted according to total RNA content, as measured by RIBOGREEN®. Results are presented as percent inhibition of Factor XI, relative to untreated control cells.
For “416984 (antisense e[5mC]*eA*dA*d[5mC]*d[5mC]*dG*dG*dG*dA*dT*dG*dA*dT*dG*dA*eG*eT*eG*e[5mC]*eA) [compound 416984]”, the “percent inhibition of Factor XI mRNA, relative to untreated control cells” value is recorded as 26%.

Regarding “416922 (antisense eG*e[5mC]*eA*d[5mC]*dA*dG*dT*dT*dT*d[5mC]*dT*dG*dG*d[5mC]*dA*dG*dG*e[5mC]*e[5mC]*eT) [compound 416922]”, the “percent inhibition of Factor XI mRNA, relative to untreated control cells” value came to 14%.

In the case of “417000 (antisense eT*eG*d[5mC]*dA*d[5mC]*dA*dG*dT*dT*dT*d[5mC]*dT*dG*dG*d[5mC]*eA*eG*eG*e[5mC]*e[5mC]) [compound 417000]”, the “percent inhibition of Factor XI mRNA, relative to untreated control cells” value came to 35%.

The data set is the same for the next values; noted with them: 18.75 nM, 16 hours.
Consider “416984 (antisense e[5mC]*eA*dA*d[5mC]*d[5mC]*dG*dG*dG*dA*dT*dG*dA*dT*dG*dA*eG*eT*eG*e[5mC]*eA) [compound 416984]”, for which the “percent inhibition of Factor XI mRNA, relative to untreated control cells” value worked out at 50%.

With “416922 (antisense eG*e[5mC]*eA*d[5mC]*dA*dG*dT*dT*dT*d[5mC]*dT*dG*dG*d[5mC]*dA*dG*dG*e[5mC]*e[5mC]*eT) [compound 416922]”, the “percent inhibition of Factor XI mRNA, relative to untreated control cells” value is recorded as 25%.

Regarding “417000 (antisense eT*eG*d[5mC]*dA*d[5mC]*dA*dG*dT*dT*dT*d[5mC]*dT*dG*dG*d[5mC]*eA*eG*eG*e[5mC]*e[5mC]) [compound 417000]”, the “percent inhibition of Factor XI mRNA, relative to untreated control cells” value is recorded as 47%.

Still in this data set, the particulars now being: 37.5 nM, 16 hours.
As for “416984 (antisense e[5mC]*eA*dA*d[5mC]*d[5mC]*dG*dG*dG*dA*dT*dG*dA*dT*dG*dA*eG*eT*eG*e[5mC]*eA) [compound 416984]”, the “percent inhibition of Factor XI mRNA, relative to untreated control cells” value is given as 62%.

As to “416922 (antisense eG*e[5mC]*eA*d[5mC]*dA*dG*dT*dT*dT*d[5mC]*dT*dG*dG*d[5mC]*dA*dG*dG*e[5mC]*e[5mC]*eT) [compound 416922]”, the “percent inhibition of Factor XI mRNA, relative to untreated control cells” value came out at 49%.

Regarding “417000 (antisense eT*eG*d[5mC]*dA*d[5mC]*dA*dG*dT*dT*dT*d[5mC]*dT*dG*dG*d[5mC]*eA*eG*eG*e[5mC]*e[5mC]) [compound 417000]”, the “percent inhibition of Factor XI mRNA, relative to untreated control cells” value stood at 58%.

Staying with this data set, now noted: 75 nM, 16 hours.
With “416984 (antisense e[5mC]*eA*dA*d[5mC]*d[5mC]*dG*dG*dG*dA*dT*dG*dA*dT*dG*dA*eG*eT*eG*e[5mC]*eA) [compound 416984]”, the “percent inhibition of Factor XI mRNA, relative to untreated control cells” value is 81%.

With “416922 (antisense eG*e[5mC]*eA*d[5mC]*dA*dG*dT*dT*dT*d[5mC]*dT*dG*dG*d[5mC]*dA*dG*dG*e[5mC]*e[5mC]*eT) [compound 416922]”, the “percent inhibition of Factor XI mRNA, relative to untreated control cells” value amounted to 75%.

Turning to “417000 (antisense eT*eG*d[5mC]*dA*d[5mC]*dA*dG*dT*dT*dT*d[5mC]*dT*dG*dG*d[5mC]*eA*eG*eG*e[5mC]*e[5mC]) [compound 417000]”, the “percent inhibition of Factor XI mRNA, relative to untreated control cells” value came out at 70%.

The next data set deals with human Factor XI mRNA. Briefly: Antisense inhibition in HepG2 cells by microwalk gapmers, 75 nM, lipofectin (Example 3). The settings on record: HepG2 cells, 75 nM, oligonucleotides targeted to nucleobases 1018 to 1042 of SEQ ID NO: 1. The class given is cell-based. A digest of the protocol:
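HepG2 cells (10,000 per well) were transfected with 75 nM gapmer using lipofectin and treated for about 24 h. Factor XI mRNA was quantified by real-time PCR, normalized to RiboGreen total RNA and expressed as percent inhibition versus untreated controls.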
For the substance “416984 (antisense e[5mC]*eA*dA*d[5mC]*d[5mC]*dG*dG*dG*dA*dT*dG*dA*dT*dG*dA*eG*eT*eG*e[5mC]*eA) [compound 416984]”, the “% inhibition of human Factor XI mRNA levels” value (“% inhibition” for short) is recorded as 89%.

Staying with this data set, now noted: HepG2 cells, 75 nM, oligonucleotides targeted to nucleobases 1275 to 1318 of SEQ ID NO: 1.
As to “416922 (antisense eG*e[5mC]*eA*d[5mC]*dA*dG*dT*dT*dT*d[5mC]*dT*dG*dG*d[5mC]*dA*dG*dG*e[5mC]*e[5mC]*eT) [compound 416922]”, the “% inhibition” value was 94%.

As to “417000 (antisense eT*eG*d[5mC]*dA*d[5mC]*dA*dG*dT*dT*dT*d[5mC]*dT*dG*dG*d[5mC]*eA*eG*eG*e[5mC]*e[5mC]) [compound 417000]”, the “% inhibition” value turned out to be 89%.

A further data set concerns human Factor XI mRNA. The data set is described as follows: Dose-dependent inhibition in HepG2 cells, electroporation (Example 4). The class given is cell-based. The settings on record: 0.7 μM, 16 hours. The method, then: as §1, with “The gapmers were also transfected via electroporation and their dose dependent inhibition of human Factor XI mRNA was measured. Cells” for “Cells”, “20,000” for “10,000”, “via electroporation” for “using lipofectin reagent”, “0.7 μM, 2.2 μM, 6.7 μM,” for “9.375 nM, 18.75 nM, 37.5 nM”, “20 μM” for “75 nM”, “10.” for “9.”
“416984 (antisense e[5mC]*eA*dA*d[5mC]*d[5mC]*dG*dG*dG*dA*dT*dG*dA*dT*dG*dA*eG*eT*eG*e[5mC]*eA) [compound 416984]”: the “percent inhibition of Factor XI mRNA, relative to untreated control cells” value is 43%.

As to “416922 (antisense eG*e[5mC]*eA*d[5mC]*dA*dG*dT*dT*dT*d[5mC]*dT*dG*dG*d[5mC]*dA*dG*dG*e[5mC]*e[5mC]*eT) [compound 416922]”, the “percent inhibition of Factor XI mRNA, relative to untreated control cells” value is recorded as 35%.

With “417000 (antisense eT*eG*d[5mC]*dA*d[5mC]*dA*dG*dT*dT*dT*d[5mC]*dT*dG*dG*d[5mC]*eA*eG*eG*e[5mC]*e[5mC]) [compound 417000]”, the “percent inhibition of Factor XI mRNA, relative to untreated control cells” value was determined as 46%.

Staying with this data set, now noted: 2.2 μM, 16 hours.
Take “416984 (antisense e[5mC]*eA*dA*d[5mC]*d[5mC]*dG*dG*dG*dA*dT*dG*dA*dT*dG*dA*eG*eT*eG*e[5mC]*eA) [compound 416984]”: the “percent inhibition of Factor XI mRNA, relative to untreated control cells” value is reported as 54%.

For “416922 (antisense eG*e[5mC]*eA*d[5mC]*dA*dG*dT*dT*dT*d[5mC]*dT*dG*dG*d[5mC]*dA*dG*dG*e[5mC]*e[5mC]*eT) [compound 416922]”, the “percent inhibition of Factor XI mRNA, relative to untreated control cells” value is listed as 51%.

With “417000 (antisense eT*eG*d[5mC]*dA*d[5mC]*dA*dG*dT*dT*dT*d[5mC]*dT*dG*dG*d[5mC]*eA*eG*eG*e[5mC]*e[5mC]) [compound 417000]”, the “percent inhibition of Factor XI mRNA, relative to untreated control cells” value is 73%.

The same data set, now with this note: 6.7 μM, 16 hours.
Turning to “416984 (antisense e[5mC]*eA*dA*d[5mC]*d[5mC]*dG*dG*dG*dA*dT*dG*dA*dT*dG*dA*eG*eT*eG*e[5mC]*eA) [compound 416984]”, the “percent inhibition of Factor XI mRNA, relative to untreated control cells” value is given as 88%.

As for “416922 (antisense eG*e[5mC]*eA*d[5mC]*dA*dG*dT*dT*dT*d[5mC]*dT*dG*dG*d[5mC]*dA*dG*dG*e[5mC]*e[5mC]*eT) [compound 416922]”, the “percent inhibition of Factor XI mRNA, relative to untreated control cells” value is on record as 77%.

As for “417000 (antisense eT*eG*d[5mC]*dA*d[5mC]*dA*dG*dT*dT*dT*d[5mC]*dT*dG*dG*d[5mC]*eA*eG*eG*e[5mC]*e[5mC]) [compound 417000]”, the “percent inhibition of Factor XI mRNA, relative to untreated control cells” value was 76%.

Still in this data set, the particulars now being: 20 μM, 16 hours.
With “416984 (antisense e[5mC]*eA*dA*d[5mC]*d[5mC]*dG*dG*dG*dA*dT*dG*dA*dT*dG*dA*eG*eT*eG*e[5mC]*eA) [compound 416984]”, the “percent inhibition of Factor XI mRNA, relative to untreated control cells” value stood at 90%.

In the case of “416922 (antisense eG*e[5mC]*eA*d[5mC]*dA*dG*dT*dT*dT*d[5mC]*dT*dG*dG*d[5mC]*dA*dG*dG*e[5mC]*e[5mC]*eT) [compound 416922]”, the “percent inhibition of Factor XI mRNA, relative to untreated control cells” value was 91%.

Regarding “417000 (antisense eT*eG*d[5mC]*dA*d[5mC]*dA*dG*dT*dT*dT*d[5mC]*dT*dG*dG*d[5mC]*eA*eG*eG*e[5mC]*e[5mC]) [compound 417000]”, the “percent inhibition of Factor XI mRNA, relative to untreated control cells” value came to 89%.
